The values below come from publication PMC9618446 (Biomedicine & Pharmacotherapy, 2022).

Holding throughout (type): cell-based
Assay [1] concerns SARS-CoV-2 S protein variant N501Y PsV. Conditions: read-out: IC50 against SARS-CoV-2 S variant PsV N501Y.
Assay [2] has as its system SARS-CoV-2 S protein variant P681H PsV. Conditions: read-out: IC50 against SARS-CoV-2 S variant PsV P681H.
Assay [3] relates to SARS-CoV-2 S protein variant D614G PsV. Conditions: read-out: IC50 against SARS-CoV-2 S variant PsV D614G.

Regarding `COc1c(O)cc2oc(-c3ccccc3)cc(=O)c2c1O` [OA, Oroxylin A], the IC50 is 13.6 ± 1.24 µM in assay [1], 19.6 ± 2.39 µM in assay [2] and 18.1 ± 0.67 µM in assay [3].
